Measured values from the supplement of paper PMC10307832.

Columns and labels:
Assay in all cases: relative viability (nuclei count vs DMSO), 5 days (fraction); higher = more cells survive
COR-L 105 = test system: COR-L 105
How it was run: (§1)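 Relative viability divides the nuclei count in treated wells by that in vehicle wells. Lung cancer cell lines were seeded in 1536-well plates, dosed by pin tool the next day, and fixed and stained after 5 days in one step with final 0.05% Triton X-100, 1% formaldehyde and 1 ug/ml Hoechst. Dosing was a single drug or a fixed anchor-drug dose plus five library-drug doses (not always all listed) in √10 steps, and values are medians of duplicate plates imaged at 4×.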

LCLC-103H = test system: LCLC-103H
How it was run: as §1

LK-2 = test system: LK-2
How it was run: as §1

NCI-H1355 = test system: NCI-H1355
How it was run: as §1

NCI-H1623 = test system: NCI-H1623
How it was run: as §1

NCI-H520 = test system: NCI-H520
How it was run: as §1

NCI-H522 = test system: NCI-H522
How it was run: as §1

Work on O=c1cc(N2CCOCC2)oc2c(-c3cccc4c3sc3ccccc34)cccc12 + CCNC(=O)c1noc(-c2cc(C(C)C)c(O)cc2O)c1-c1ccc(CN2CCOCC2)cc1 [Luminespib] (partner 0.01 µM) yielded a relative viability (COR-L 105; first compound 0.01 µM) of 0.738, a relative viability (COR-L 105; first compound 0.03162 µM) of 0.739 and a relative viability (COR-L 105; first compound 0.1 µM) of 0.758. It also gave a relative viability (COR-L 105; first compound 0.3162 µM) of 0.754, a relative viability (COR-L 105; first compound 1 µM) of 0.603 and a relative viability (LCLC-103H; first compound 0.01 µM) of 0.912. For the same compound, the relative viability (LCLC-103H; first compound 0.03162 µM) was 1.01, the relative viability (LCLC-103H; first compound 0.1 µM) was 1.02 and the relative viability (LCLC-103H; first compound 0.3162 µM) was 0.898. For the same compound, the relative viability (LCLC-103H; first compound 1 µM) was 0.925, the relative viability (LK-2; first compound 0.01 µM) was 0.181 and the relative viability (LK-2; first compound 0.03162 µM) was 0.217. It also gave a relative viability (LK-2; first compound 0.1 µM) of 0.198, a relative viability (LK-2; first compound 0.3162 µM) of 0.176 and a relative viability (LK-2; first compound 1 µM) of 0.139. The relative viability (NCI-H1355; first compound 0.01 µM) was 0.815, the relative viability (NCI-H1355; first compound 0.03162 µM) was 0.708 and the relative viability (NCI-H1355; first compound 0.1 µM) was 0.669. It also gave a relative viability (NCI-H1355; first compound 0.3162 µM) of 0.728, a relative viability (NCI-H1355; first compound 1 µM) of 0.688 and a relative viability (NCI-H1623; first compound 0.01 µM) of 0.383. It also gave a relative viability (NCI-H1623; first compound 0.03162 µM) of 0.521, a relative viability (NCI-H1623; first compound 0.1 µM) of 0.495 and a relative viability (NCI-H1623; first compound 0.3162 µM) of 0.475. It also gave a relative viability (NCI-H1623; first compound 1 µM) of 0.409, a relative viability (NCI-H520; first compound 0.01 µM) of 0.213 and a relative viability (NCI-H520; first compound 0.03162 µM) of 0.285. The relative viability (NCI-H520; first compound 0.1 µM) was 0.24, the relative viability (NCI-H520; first compound 0.3162 µM) was 0.209 and the relative viability (NCI-H520; first compound 1 µM) was 0.249. The relative viability (NCI-H522; first compound 0.01 µM) was 1.23, the relative viability (NCI-H522; first compound 0.03162 µM) was 1.37 and the relative viability (NCI-H522; first compound 0.1 µM) was 0.915. For the same compound, the relative viability (NCI-H522; first compound 0.3162 µM) was 1.06 and the relative viability (NCI-H522; first compound 1 µM) was 1.14.
With O=c1cc(-c2cccc3c2Sc2ccccc2S3)oc(N2CCOCC2)c1 + Cc1nc(Nc2ncc(C(=O)Nc3c(C)cccc3Cl)s2)cc(N2CCN(CCO)CC2)n1 [Dasatinib] (partner 0.075 µM) the relative viability (COR-L 105; first compound 0.08 µM) was 0.311, the relative viability (COR-L 105; first compound 0.253 µM) was 0.311 and the relative viability (COR-L 105; first compound 0.8 µM) was 0.326. For the same compound, the relative viability (COR-L 105; first compound 2.53 µM) was 0.356, the relative viability (COR-L 105; first compound 8 µM) was 0.31 and the relative viability (LCLC-103H; first compound 0.08 µM) was 0.416. It also gave a relative viability (LCLC-103H; first compound 0.253 µM) of 0.503, a relative viability (LCLC-103H; first compound 0.8 µM) of 0.528 and a relative viability (LCLC-103H; first compound 2.53 µM) of 0.439. The relative viability (LCLC-103H; first compound 8 µM) was 0.551, the relative viability (LK-2; first compound 0.08 µM) was 0.306 and the relative viability (LK-2; first compound 0.253 µM) was 0.252. It also gave a relative viability (LK-2; first compound 0.8 µM) of 0.267, a relative viability (LK-2; first compound 2.53 µM) of 0.145 and a relative viability (LK-2; first compound 8 µM) of 0.263. The relative viability (NCI-H1355; first compound 0.08 µM) was 0.754, the relative viability (NCI-H1355; first compound 0.253 µM) was 0.619 and the relative viability (NCI-H1355; first compound 0.8 µM) was 0.488. For the same compound, the relative viability (NCI-H1355; first compound 2.53 µM) was 0.615, the relative viability (NCI-H1355; first compound 8 µM) was 0.694 and the relative viability (NCI-H1623; first compound 0.08 µM) was 0.488. The relative viability (NCI-H1623; first compound 0.253 µM) was 0.568, the relative viability (NCI-H1623; first compound 0.8 µM) was 0.501 and the relative viability (NCI-H1623; first compound 2.53 µM) was 0.57. The relative viability (NCI-H1623; first compound 8 µM) was 0.536, the relative viability (NCI-H520; first compound 0.08 µM) was 0.181 and the relative viability (NCI-H520; first compound 0.253 µM) was 0.258. For the same compound, the relative viability (NCI-H520; first compound 0.8 µM) was 0.194, the relative viability (NCI-H520; first compound 2.53 µM) was 0.172 and the relative viability (NCI-H520; first compound 8 µM) was 0.213. The relative viability (NCI-H522; first compound 0.08 µM) was 0.895, the relative viability (NCI-H522; first compound 0.253 µM) was 0.983 and the relative viability (NCI-H522; first compound 0.8 µM) was 0.872. It also gave a relative viability (NCI-H522; first compound 2.53 µM) of 0.71 and a relative viability (NCI-H522; first compound 8 µM) of 0.781.
Compound CCN(CC)CCCCNc1ncc2cc(-c3cc(OC)cc(OC)c3)c(NC(=O)NC(C)(C)C)nc2n1 + Cc1nc(Nc2ncc(C(=O)Nc3c(C)cccc3Cl)s2)cc(N2CCN(CCO)CC2)n1 [Dasatinib] (partner 0.075 µM) has a relative viability (COR-L 105; first compound 0.01 µM) of 0.297, a relative viability (COR-L 105; first compound 0.03162 µM) of 0.282 and a relative viability (COR-L 105; first compound 0.1 µM) of 0.354. It also gave a relative viability (COR-L 105; first compound 0.3162 µM) of 0.381, a relative viability (COR-L 105; first compound 1 µM) of 0.279 and a relative viability (LCLC-103H; first compound 0.01 µM) of 0.424. For the same compound, the relative viability (LCLC-103H; first compound 0.03162 µM) was 0.623, the relative viability (LCLC-103H; first compound 0.1 µM) was 0.596 and the relative viability (LCLC-103H; first compound 0.3162 µM) was 0.554. The relative viability (LCLC-103H; first compound 1 µM) was 0.331, the relative viability (LK-2; first compound 0.01 µM) was 0.29 and the relative viability (LK-2; first compound 0.03162 µM) was 0.267. The relative viability (LK-2; first compound 0.1 µM) was 0.254, the relative viability (LK-2; first compound 0.3162 µM) was 0.188 and the relative viability (LK-2; first compound 1 µM) was 0.212. For the same compound, the relative viability (NCI-H1355; first compound 0.01 µM) was 0.775, the relative viability (NCI-H1355; first compound 0.03162 µM) was 0.751 and the relative viability (NCI-H1355; first compound 0.1 µM) was 0.746. The relative viability (NCI-H1355; first compound 0.3162 µM) was 0.775, the relative viability (NCI-H1355; first compound 1 µM) was 0.663 and the relative viability (NCI-H1623; first compound 0.01 µM) was 0.504. It also gave a relative viability (NCI-H1623; first compound 0.03162 µM) of 0.449, a relative viability (NCI-H1623; first compound 0.1 µM) of 0.579 and a relative viability (NCI-H1623; first compound 0.3162 µM) of 0.571. The relative viability (NCI-H1623; first compound 1 µM) was 0.516, the relative viability (NCI-H520; first compound 0.01 µM) was 0.182 and the relative viability (NCI-H520; first compound 0.03162 µM) was 0.2. The relative viability (NCI-H520; first compound 0.1 µM) was 0.216, the relative viability (NCI-H520; first compound 0.3162 µM) was 0.159 and the relative viability (NCI-H520; first compound 1 µM) was 0.162. For the same compound, the relative viability (NCI-H522; first compound 0.01 µM) was 0.862, the relative viability (NCI-H522; first compound 0.03162 µM) was 1.01 and the relative viability (NCI-H522; first compound 0.1 µM) was 1. The relative viability (NCI-H522; first compound 0.3162 µM) was 0.879 and the relative viability (NCI-H522; first compound 1 µM) was 0.79.
